From PMC8003975 (Cancers, 2021) come the findings set out here.

Each structure is given as a SMILES string. Values joined by “and” are separate entries in the source; they are usually repeats but may differ in a detail not shown here. Identical values can stand only once. Like-named read-outs stand apart in the source and are kept apart here.

For one data set, the system named is c-Met. As to the kind of experiment: Western blot of treated HNC cells. In kind it is cell-based, human. The following applies: Cal27, JHU029 and JHU022 cells, 48 hr; 2% or 3% BME, 10 or 20 µg/mL M-I; vs vehicle control. The protocol:
(§1) Figure 2 Momordicine-I inhibited c-Met signaling in HNC cells. (A) Cal27, JHU029 […] cells were treated with either 2% BME or 10 µg/mL of M-I and JHU022 cells were treated with either 3% BME or 20 µg/mL dose of M-I. Cell lysates were prepared after 48 hr of treatment and subjected to Western blot analysis using specific antibodies. Representative Western blot images for c-Met expression in Cal27, JHU029 and JHU022 cells are shown. Membrane was reprobed with the antibody for actin as an internal control. (B) Representative Western blot image for phospho-STAT3 (pSTAT3 Tyr-705) and total STAT3 expression in Cal27 and JHU029 cells with BME or M-I treatment. Membrane was reprobed by actin as an internal control. Quantitative representation of Western blot band intensities (right panel). Small bar indicates standard error (* p < 0.05; *** p < 0.001). (C) Cal27 cells were treated with 2% BME or M-I (10 μg/mL) at indicated time points. (D) Cal27 cells were treated with control siRNA or siRNA to c-Met (si-Met) for 48 hr. Cell lysates (from panels c and D) were subjected to analyze by western blot for pSTAT3 or STAT3 using specific antibody. Membranes were reprobed by actin as internal control. Quantitative representation of Western blot band intensities (right panel). Small bar indicates standard error (*** p < 0.001).
(§2) Bitter melon extract (BME) was prepared from the Chinese variety of young bitter melons (raw and green) as described previously. Briefly, BME was prepared by aqueous extraction from whole fruit without seeds using a household juicer at room temperature with subsequent centrifugation at 15000× g at 4 °C for 30 min. BME was stored at −80 °C for further analysis. Cal27 and JHU029 cells were treated with 2% BME and JHU022 cells were treated with 3% BME as described previously. The momordicine-I (>98% pure) was purchased from Chemfaces (Cat. No.: CFN92076; Hubei, China). The powder was dissolved in DMSO and added to the cells at different concentrations. Based on cytotoxicity data, Cal27 and JHU029 cells were treated with 10 µg/mL and JHU022 cells were treated with 20 µg/mL dose of M-I and incubated for 48 hr for further experiments. All the experiments were done at least in triplicate.
(§3) Lysates from control, BME or M-I treated cells and tumors were prepared using 2× SDS sample buffer and subjected to western blot analysis using specific antibodies to c-Met (1: 500, Cell Signaling Technology, CST, Denvers, MA, USA,), phospho- STAT3 (pSTAT3-Tyr-705) (1:1000, CST), total STAT3 (1:1000, CST), c-Myc (1:1000, CST), survivin (1:500, Santa Cruz Biotechnology, SBT, Dallas, TX, USA) and cyclin D1 (1: 500, SBT). HRP conjugated anti-mouse or anti-rabbit secondary antibodies were purchased from Bio-Rad (Hercules, CA, USA). The blot was reprobed with HRP conjugated β-actin antibody (1:5000; SBT) to compare protein load in each lane. Densitometry analysis was done using Image J software (NIH, Bethesda, MD, USA).

Another data set concerns phospho-STAT3 (Tyr-705). As to the kind of experiment: Western blot of treated HNC cells. In kind it is cell-based, human. The protocol: as §1, §2, §3
In another data set the test system is total STAT3. As to the kind of experiment: Western blot of treated HNC cells. The following applies: for total STAT3 level, short term treatment: Cal27 cells, 2% BME or 10 μg/mL M-I. It is filed as cell-based, human. The protocol: as §1, §2, §3
A short description of data set [1]: Pharmacokinetic study, single dose IP or oral gavage. It is filed as in vivo, C57Bl/6 male mice. The following applies: for AUC(0-t) / Tmax / AUC(0-inf) / Cmax / half-life: male, C57Bl/6, mouse; for AUC(0-inf): read-out: AUCINF_obs (converted); for Cmax / half-life: 20 mg/kg; for half-life: read-out: T½ (elimination half-life) (converted). The protocol:
To evaluate the pharmacokinetic (PK) profile of M-I, a single dose (20 mg/kg) was given to C57Bl/6 male mice by either intraperitoneal injection (IP group; n = 3) or oral ga-vage (oral group; n = 3). A dose of 20 mg/kg was chosen based on previous publications. The average plasma concentration ± standard deviation at each time point is shown in Figure 5A and corresponding PK parameters are summarized in Table 2. M-I was rapidly absorbed with a maximum plasma concentration 1 h post-IP and PO dose. […] The observed elimination half-life was 0.9 h in the IP group and 2 h in the PO group. The oral group had loose stool, starting four hours post-dose, which had not re-solved by 8 h but all mice appeared normal after twenty-four hours. […] We therefore selected IP administration of M-I for subsequence studies.
The pharmacokinetic (PK) study of M-I was performed in male C57Bl/6 mice. A sin-gle dose of M-I (formulated at 2 mg/mL dissolved in 5% DMSO/95% of a 30% w:v Captisol solution) was administered either by intraperitoneal injection (IP group, n = 3) or oral ga-vage (PO group, n = 3). After dosing, 20 µL blood samples were collected into heparin pre-coated tubes at 5 min, 15 min, 30 min, 1 h, 2 h, 4 h, 6 h, 8 h and 24 h. Samples were centrifuged, and the plasma collected. M-I concentration was determined using liq-uid chromatography-mass spectrometry/mass spectrometry (LC-MS/MS) as described earlier.

Consider `CC(C)=CC(O)CC(C)[C@H]1CC[C@@]2(C)[C@@H]3[C@@H](O)C=C4[C@@H](CC[C@H](O)C4(C)C)[C@]3(C=O)CC[C@]12C` (stereo partly drawn) [M-I, (3S, 7S, 8S, 9R, 10R, 13R, 14S, 17R) 3,7-dihydroxy-17-(4-hydroxy-6-methylhept-5-en-2-yl)-4,4,13,14-tetramethyl-2,3,7,8,10,11, 12,15,16,17-decahydro-1H-cyclopenta[a]phenanthrene-9-carbaldehyde], for which the c-Met expression result with c-Met is given as “significant reduction”. The “phospho-STAT3 (Tyr-705) expression” value in the data set with phospho-STAT3 (Tyr-705) (Cal27 and JHU029 cells, 48 hr, 2% BME or 10 µg/mL M-I) is given as “significant reduction”. Further, the “pSTAT3 level, short term treatment” value with phospho-STAT3 (Tyr-705) (Cal27 cells, 15 min, 2% BME or 10 μg/mL M-I) is on record as “inhibits”. In the data set with total STAT3 (Cal27 and JHU029 cells, 48 hr, 10 µg/mL M-I), the “total STAT3 level” value is reported as “substantial reduction”. The “total STAT3 level, short term treatment” value in the data set on total STAT3 (15 min) is “without affecting”; in the data set on total STAT3 (240 min) it was “inhibited”. In addition, the “adverse events in PK study” value is given as “No adverse events” in data set [1] (20 mg/kg IP) and “loose stool” in data set [1] (20 mg/kg oral gavage, starting four hours post-dose, normal after twenty-four hours). For the same molecule, the “AUC (%Extrap)” value worked out at 0.33 ± 0.08% in data set [1] (20 mg/kg IP, plasma, mean ± SD) and 6.84 ± 1.5% in data set [1] (20 mg/kg PO, plasma, mean ± SD). The “T½ (elimination half-life)” value in data set [1] (20 mg/kg PO, plasma, mean ± SD) is reported as 2.11 ± 0.3 h. Besides, the AUC(0-t) in data set [1] (20 mg/kg IP, plasma, mean ± SD) is 12700 ng·h/mL; in data set [1] (20 mg/kg PO, plasma, mean ± SD) it was 643 ng·h/mL. In addition, the Tmax in data set [1] (20 mg/kg IP, plasma, mean ± SD) was found to be 1 h; in data set [1] (20 mg/kg PO, plasma, mean ± SD), 1 ± 0.9 h. Moreover, the AUC(0-inf) in data set [1] (20 mg/kg IP, plasma, mean ± SD) was 12800 ng·h/mL; in data set [1] (20 mg/kg PO, plasma, mean ± SD), 688 ng·h/mL. Moreover, the Cmax in data set [1] (plasma, ip, 20 mg/kg IP, mean ± SD) is 18 µM and 8430 ng/mL; in data set [1] (plasma, po, 20 mg/kg PO, mean ± SD), 500 nM and 214 ng/mL. Further, the half-life in data set [1] (plasma, ip, 20 mg/kg IP, plasma, mean ± SD) was 0.9 ± 0.02 h; in data set [1] (plasma, po, 20 mg/kg PO, plasma, mean ± SD) it was 2 h.
